Measured values taken from PMC5908474 (European journal of medicinal chemistry, 2018).
Like-named read-outs stand apart in the source and are kept apart here.

Columns and labels:
[1] = molecular target: recombinant human S1PR1 (Homo sapiens, UniProt P21453); assay: [32P]S1P competitive binding assay, S1PR1; conditions: for IC50: mean ± SD, CHO cell membrane, recombinant human S1PR1, 0.1 nM [32P]S1P; for fold increased S1PR1 IC50 value compared to compound 4: vs compound 4 (2.6 nM)
[2] = molecular target: recombinant human S1PR3 (Homo sapiens, UniProt Q99500); assay: [32P]S1P competitive binding assay, S1PR3
[3] = molecular target: recombinant human S1PR2 (Homo sapiens, UniProt O95136); assay: [32P]S1P competitive binding assay, S1PR2
[4] = molecular target: T1, recombinant human S1PR4 (Homo sapiens, UniProt O95977); assay: [32P]S1P competitive binding assay, S1PR4
T1 sequence (O95977 1-384): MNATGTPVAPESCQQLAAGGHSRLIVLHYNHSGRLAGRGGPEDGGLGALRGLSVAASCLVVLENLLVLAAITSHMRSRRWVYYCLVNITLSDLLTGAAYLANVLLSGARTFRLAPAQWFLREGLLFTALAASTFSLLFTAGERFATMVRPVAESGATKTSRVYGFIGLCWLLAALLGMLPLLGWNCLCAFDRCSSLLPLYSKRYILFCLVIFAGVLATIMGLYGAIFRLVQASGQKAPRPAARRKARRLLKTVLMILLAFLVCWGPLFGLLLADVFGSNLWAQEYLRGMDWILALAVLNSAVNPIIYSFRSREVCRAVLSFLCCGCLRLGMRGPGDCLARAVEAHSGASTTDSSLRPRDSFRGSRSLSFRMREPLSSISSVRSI

[5] = molecular target: recombinant human S1PR5 (Homo sapiens, UniProt Q9H228); assay: [32P]S1P competitive binding assay, S1PR5
Chain of recombinant human S1PR5 (Q9H228 whole entry): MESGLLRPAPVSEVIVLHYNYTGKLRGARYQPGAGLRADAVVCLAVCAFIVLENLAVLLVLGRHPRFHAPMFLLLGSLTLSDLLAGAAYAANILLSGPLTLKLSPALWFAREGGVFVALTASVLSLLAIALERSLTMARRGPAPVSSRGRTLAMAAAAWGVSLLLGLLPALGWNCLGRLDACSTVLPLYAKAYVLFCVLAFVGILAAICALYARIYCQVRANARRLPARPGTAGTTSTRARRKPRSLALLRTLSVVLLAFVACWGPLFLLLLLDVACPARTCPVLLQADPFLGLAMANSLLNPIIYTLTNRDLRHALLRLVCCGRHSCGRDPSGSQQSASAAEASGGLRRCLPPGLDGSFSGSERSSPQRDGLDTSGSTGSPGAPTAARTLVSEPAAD

Chain of recombinant human S1PR1 (P21453 whole entry): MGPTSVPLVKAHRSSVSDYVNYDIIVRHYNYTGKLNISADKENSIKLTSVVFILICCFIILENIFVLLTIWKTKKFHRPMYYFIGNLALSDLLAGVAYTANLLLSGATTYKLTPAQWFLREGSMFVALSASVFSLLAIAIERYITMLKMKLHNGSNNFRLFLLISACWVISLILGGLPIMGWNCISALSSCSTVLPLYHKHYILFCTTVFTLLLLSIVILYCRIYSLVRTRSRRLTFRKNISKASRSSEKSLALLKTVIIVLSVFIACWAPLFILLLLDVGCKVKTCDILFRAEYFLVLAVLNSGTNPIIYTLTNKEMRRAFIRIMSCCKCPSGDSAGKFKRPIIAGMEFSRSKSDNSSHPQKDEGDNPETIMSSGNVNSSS
Chain of recombinant human S1PR2 (O95136 whole entry): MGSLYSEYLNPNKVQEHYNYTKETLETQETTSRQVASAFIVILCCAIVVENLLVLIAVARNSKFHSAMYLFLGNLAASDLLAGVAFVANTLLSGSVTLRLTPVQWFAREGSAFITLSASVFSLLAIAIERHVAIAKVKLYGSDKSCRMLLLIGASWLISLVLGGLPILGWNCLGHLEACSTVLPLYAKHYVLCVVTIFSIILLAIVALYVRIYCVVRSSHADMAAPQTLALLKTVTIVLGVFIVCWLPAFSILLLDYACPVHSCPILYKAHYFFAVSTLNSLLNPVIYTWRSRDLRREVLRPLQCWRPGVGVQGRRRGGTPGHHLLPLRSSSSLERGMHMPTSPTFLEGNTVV
Chain of recombinant human S1PR3 (Q99500 whole entry): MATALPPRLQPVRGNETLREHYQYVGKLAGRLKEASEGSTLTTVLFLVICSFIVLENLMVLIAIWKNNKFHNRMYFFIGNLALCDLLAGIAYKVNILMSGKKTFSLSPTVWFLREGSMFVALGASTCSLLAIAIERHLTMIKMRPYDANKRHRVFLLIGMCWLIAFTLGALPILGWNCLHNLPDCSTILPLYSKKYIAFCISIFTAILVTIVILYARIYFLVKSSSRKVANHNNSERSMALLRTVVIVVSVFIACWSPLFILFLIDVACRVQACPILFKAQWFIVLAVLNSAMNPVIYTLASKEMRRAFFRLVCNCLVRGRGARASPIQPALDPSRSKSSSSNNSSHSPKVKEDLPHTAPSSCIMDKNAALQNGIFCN

Q: NCCOCc1ccc(-c2noc(-c3ccc(OCCF)c(C(F)(F)F)c3)n2)cc1 [21b, 2-((4-(5-(4-(2-Fluoroethoxy)-3-(trifluoromethyl)phenyl)-1,2,4-oxadiazol-3-yl)benzyl)oxy)ethan-1-amine] was tested. Which IC50 ([1]; S1PR1 IC50 (nM)) did it give?
A: The IC50 was 44.2 ± 6.8 nM.

Q: With NNC(=O)c1ccc(-c2noc(-c3ccc(OCCF)c(C(F)(F)F)c3)n2)cc1 [10c, 4-(5-(4-(2-Fluoroethoxy)-3-(trifluoromethyl)phenyl)-1,2,4-oxadiazol-3-yl)benzohydrazide] as the compound, how does the IC50 [2] read?
A: Its IC50 is over 1000 nM.

Q: And the IC50 [3]?
A: Its IC50 is over 1000 nM.

Q: What about the “fold decreased S1PR1 IC50 value compared to compound 9b” value ([1]; vs benzamide 9b) of the same compound?
A: The value was 5 fold.

Q: Which IC50 ([1]; S1PR1 IC50 (nM)) does the source give for O=C(O)c1ccc(-c2noc(-c3ccc(OCCF)c(C(F)(F)F)c3)n2)cc1 [10a, 4-(5-(4-(2-Fluoroethoxy)-3-(trifluoromethyl)phenyl)-1,2,4-oxadiazol-3-yl)benzoic acid] here?
A: Its IC50 is over 1000 nM.

Q: O=C(NO)c1ccc(-c2noc(-c3ccc(OCCF)c(C(F)(F)F)c3)n2)cc1 [10b, 4-(5-(4-(2-Fluoroethoxy)-3-(trifluoromethyl)phenyl)-1,2,4-oxadiazol-3-yl)-N-hydroxybenzamide] was tested. Which “fold increased S1PR1 IC50 value compared to compound 9b” value ([1]; vs benzamide 9b) did it give?
A: Its value is 4 fold.

Q: Which results are given for O=C(O)CNCc1ccc(-c2noc(-c3ccc(OCCF)c(C(F)(F)F)c3)n2)cc1 [16a, (4-(5-(4-(2-Fluoroethoxy)-3-(trifluoromethyl)phenyl)-1,2,4-oxadiazol-3-yl)benzyl)glycine]?
A: IC50 ([1]; S1PR1 IC50 (nM)): 99.8 ± 12.2 nM; fold increased S1PR1 IC50 value compared to compound 4 [1]: 38 fold

Q: For O=C(O)c1cn(Cc2ccc(-c3noc(-c4ccc(OCCF)c(C(F)(F)F)c4)n3)cc2)nn1 [12a, 1-(4-(5-(4-(2-Fluoroethoxy)-3-(trifluoromethyl)phenyl)-1,2,4-oxadiazol-3-yl)benzyl)-1H-1,2,3-triazole-4-carbox-ylic acid], which IC50 ([1]; read-out: S1PR1 IC50) is on record?
A: Its IC50 is 341 ± 126 nM.

Q: What about the “fold increased S1PR1 IC50 value compared to compound 4” value [1] of the same compound?
A: The value was 130 fold.

Q: What does the source list for OCc1cn(Cc2ccc(-c3noc(-c4ccc(OCCF)c(C(F)(F)F)c4)n3)cc2)nn1 [12b, (1-(4-(5-(4-(2-Fluoroethoxy)-3-(trifluoromethyl)phenyl)-1,2,4-oxadiazol-3-yl)benzyl)-1H-1,2,3-triazol-4-yl)met-hanol]?
A: IC50 ([4]; read-out: IC50 (nM) S1PR4, mean ± SD, membranes with recombinant human S1PR4, [32P]S1P): > 1000 nM; IC50 ([2]; read-out: IC50 (nM) S1PR3, mean ± SD, membranes with recombinant human S1PR3, [32P]S1P): > 1000 nM; IC50 ([3]; read-out: IC50 (nM) S1PR2, mean ± SD, membranes with recombinant human S1PR2, [32P]S1P): > 1000 nM; IC50 ([5]; read-out: IC50 (nM) S1PR5, mean ± SD, membranes with recombinant human S1PR5, [32P]S1P): > 1000 nM; selectivity toward S1PR1 over S1PR2-5 ([1]; S1PR1 over S1PR2-5): > 100 fold; fold decreased S1PR1 IC50 value compared to acid 12a ([1]; vs 12a (341 nM)): 35 fold

Q: What does the source list for O=C(O)CCNCc1ccc(-c2noc(-c3ccc(OCCF)c(C(F)(F)F)c3)n2)cc1 [16b, 3-((4-(5-(4-(2-Fluoroethoxy)-3-(trifluoromethyl)phenyl)-1,2,4-oxadiazol-3-yl)benzyl)amino)propanoic acid]?
A: IC50 [4]: > 1000 nM; IC50 [2]: > 1000 nM; IC50 [3]: > 1000 nM; IC50 [5]: > 1000 nM; IC50 ([1]; S1PR1 IC50 (nM)): 6.3 ± 1.3 nM

Q: Which results are given for NS(=O)(=O)c1ccc(-c2noc(-c3ccc(OCCF)c(C(F)(F)F)c3)n2)cc1 [9a, 4-(5-(4-(2-Fluoroethoxy)-3-(trifluoromethyl)phenyl)-1,2,4-oxadiazol-3-yl)benzenesulfonamide]?
A: IC50 [2]: > 1000 nM; IC50 [3]: > 1000 nM
